# Measurements from PMC7375020 (Frontiers in Cell and Developmental Biology, 2020).
# Marks after values point to notes of the source that are not given here.
# Experiments:
# [1] = test system: HeLa cell nuclear extract; experiment: In vitro HDAC inhibition fluorescent assay, total HDAC; assay type: biochemical; details: Boc-Lys(acetyl)-AMC substrate
# Protocol: (§1) An aliquot of 10 μL of enzyme solution (HeLa cell nuclear extract, HDAC2, HDAC6, or HDAC8) was mixed with different concentrations of test compound (50 μL). The mixture was incubated at 37°C for 5 min, followed by the addition of 40 μL of fluorogenic substrate tert-butyl (S)-(6-acetamido- 1-((4-methyl-2-oxo-2H-chromen-7-yl)amino)-1-oxohexan-2-yl) carbamate (Boc-Lys(acetyl)-AMC) for HeLa cell nuclear extracts, HDAC2, and HDAC6; tert-butyl (S)-(1-((4-methyl- 2-oxo-2H-chromen-7-yl)amino)-1-oxo-6-(2,2,2-trifluoroacetam ido)hexan-2-yl)carbamate (Boc-Lys(trifluoroacetyl)-AMC) for HDAC8). After incubation at 37°C for 30 min, the mixture was quenched by the addition of 100 μL of developer containing trypsin and trichostatin A. Following incubation at 37°C for 20 min, the fluorescence intensity was measured using a microplate reader at excitation and emission wavelengths of 390 and 460 nm, respectively. The inhibition ratios were calculated from the fluorescence intensity readout of tested wells relative to those of control wells, and the half maximal inhibitory concentration (IC50) values were calculated using the prism non-linear curve-fitting method.
# HDAC2 = HDAC2 (Homo sapiens, UniProt Q92769); experiment: In vitro HDAC inhibition fluorescent assay, HDAC2; assay type: biochemical; details: Boc-Lys(acetyl)-AMC substrate
# Protocol: as §1
# HDAC6 = target: T1, HDAC6 (Homo sapiens, UniProt Q9UBN7); experiment: In vitro HDAC inhibition fluorescent assay, HDAC6; assay type: biochemical; details: Boc-Lys(acetyl)-AMC substrate
# T1 sequence (Q9UBN7 1-1215): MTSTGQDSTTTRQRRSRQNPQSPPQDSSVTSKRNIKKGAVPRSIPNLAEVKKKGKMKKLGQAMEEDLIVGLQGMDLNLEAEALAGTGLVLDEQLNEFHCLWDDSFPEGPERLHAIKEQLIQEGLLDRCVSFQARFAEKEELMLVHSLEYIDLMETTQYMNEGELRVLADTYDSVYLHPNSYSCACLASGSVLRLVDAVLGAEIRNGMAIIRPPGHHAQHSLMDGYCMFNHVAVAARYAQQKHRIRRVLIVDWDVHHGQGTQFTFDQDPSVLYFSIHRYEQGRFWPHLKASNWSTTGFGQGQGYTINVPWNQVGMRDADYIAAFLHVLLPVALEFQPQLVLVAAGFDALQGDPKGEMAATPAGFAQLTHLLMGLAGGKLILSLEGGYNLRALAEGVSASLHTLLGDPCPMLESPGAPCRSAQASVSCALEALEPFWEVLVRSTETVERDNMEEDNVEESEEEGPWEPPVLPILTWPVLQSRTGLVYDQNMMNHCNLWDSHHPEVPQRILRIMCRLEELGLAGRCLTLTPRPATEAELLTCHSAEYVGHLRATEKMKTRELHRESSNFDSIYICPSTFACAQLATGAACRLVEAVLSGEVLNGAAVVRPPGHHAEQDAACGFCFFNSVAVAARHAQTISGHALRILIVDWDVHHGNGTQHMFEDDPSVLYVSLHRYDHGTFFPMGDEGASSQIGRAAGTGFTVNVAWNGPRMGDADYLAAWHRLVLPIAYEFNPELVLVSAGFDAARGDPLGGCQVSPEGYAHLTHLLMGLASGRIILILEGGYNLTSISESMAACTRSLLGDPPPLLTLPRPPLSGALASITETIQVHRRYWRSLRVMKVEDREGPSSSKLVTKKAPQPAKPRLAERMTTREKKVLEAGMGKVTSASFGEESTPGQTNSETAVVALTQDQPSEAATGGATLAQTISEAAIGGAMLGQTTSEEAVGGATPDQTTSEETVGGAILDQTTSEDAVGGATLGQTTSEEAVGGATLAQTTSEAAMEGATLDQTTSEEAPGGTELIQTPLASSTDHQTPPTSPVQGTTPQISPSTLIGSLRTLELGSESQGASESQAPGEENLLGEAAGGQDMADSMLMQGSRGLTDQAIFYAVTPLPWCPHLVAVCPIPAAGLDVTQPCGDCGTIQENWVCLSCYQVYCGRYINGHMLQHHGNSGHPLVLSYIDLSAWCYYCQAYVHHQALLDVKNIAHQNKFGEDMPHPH
# Protocol: as §1
# HDAC8 = target: T2, HDAC8 (Homo sapiens, UniProt Q9BY41); experiment: In vitro HDAC inhibition fluorescent assay, HDAC8; assay type: biochemical; details: Boc-Lys(trifluoroacetyl)-AMC substrate
# T2 sequence (Q9BY41 1-377): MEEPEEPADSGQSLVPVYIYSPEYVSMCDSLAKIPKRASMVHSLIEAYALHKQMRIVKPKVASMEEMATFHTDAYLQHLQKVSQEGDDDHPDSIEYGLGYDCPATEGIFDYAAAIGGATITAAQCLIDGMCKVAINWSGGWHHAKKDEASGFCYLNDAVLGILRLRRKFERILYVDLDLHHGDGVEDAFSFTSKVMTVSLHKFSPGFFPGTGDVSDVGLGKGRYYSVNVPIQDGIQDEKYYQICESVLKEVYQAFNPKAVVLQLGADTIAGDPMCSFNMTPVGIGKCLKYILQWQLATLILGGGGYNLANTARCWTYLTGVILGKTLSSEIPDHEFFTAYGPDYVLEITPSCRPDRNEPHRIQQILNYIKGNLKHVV
# Protocol: as §1
# MDA-MB-231 = experiment: In vitro antiproliferative assay (MTT), MDA-MB-231; assay type: cell-based; details: Homo sapiens, 72 h
# Protocol: (§2) The cell proliferation assay was determined by the MTT (3-[4,5-dimethyl-2-thiazolyl]-2,5-diphenyl-2H-tetrazolium bromide) method. Briefly, cells were passaged the day before dosing into a 96-well plate, allowed to grow for 12 h, and then treated with different concentrations of compound for 72 h. A 0.5% MTT solution was added to each well. After incubation for another 4 h, formazan formed from MTT was extracted by adding 200 μL of DMSO. Absorbance was then determined using a microplate reader at 570 nm.
# MCF-7 = experiment: In vitro antiproliferative assay (MTT), MCF-7; assay type: cell-based; details: Homo sapiens, MCF7, 72 h
# Protocol: as §2
# PC-3 = experiment: In vitro antiproliferative assay (MTT), PC-3; assay type: cell-based; details: Homo sapiens, 72 h
# Protocol: as §2
# SK-N-BE(2) = experiment: In vitro antiproliferative assay (MTT), SK-N-BE(2); assay type: cell-based; details: Homo sapiens, SKNBE2, 72 h
# Protocol: as §2
# KG-1 = experiment: In vitro antiproliferative assay (MTT), KG-1; assay type: cell-based; details: Homo sapiens, 72 h
# Protocol: as §2
# MOLT-4 = experiment: In vitro antiproliferative assay (MTT), MOLT-4; assay type: cell-based; details: Homo sapiens, 72 h
# Protocol: as §2
# HEL = experiment: In vitro antiproliferative assay (MTT), HEL; assay type: cell-based; details: Homo sapiens, 72 h
# Protocol: as §2
# [2] = test system: tested human cancer cell lines; experiment: In vitro antiproliferative assay (MTT), all tested tumor cell lines; assay type: cell-based
# Protocol: as §2, with “All cell lines were maintained in Roswell Park Memorial Institute (RPMI) 1640 medium containing 10% fetal bovine serum at 37°C in a 5% CO2 humidified incubator. The” for “The”
# [3] = In vitro metabolic stability assay in human plasma; assay type: in vitro ADME; details: 37°C, LC-MS/MS, read-out: t1/2 Human plasma
# Protocol: (§3) Human plasma samples containing compound 1 were incubated at 37°C. At the specific time points, samples were added to acetonitrile to terminate the reaction, then subjected to vortex mixing for 5 min and stored in a freezer at –80°C. Before analysis, the samples were centrifuged. The remainder of 1 in the supernatants was analyzed by liquid chromatography with tandem mass spectrometry (LC-MS/MS). The t1/2(half–time) values were calculated using the equation t1/2(half–time) = −0.693/k, where k is the slope found in the linear fit of the natural logarithm of the fraction remaining of compound 1 versus incubation time.
# [4] = In vitro metabolic stability assay in human liver microsomes; assay type: in vitro ADME; details: with NADPH, 37°C, LC-MS/MS, read-out: t1/2 Human liver microsomes
# Protocol: as §3, with “Human liver microsomes” for “Human plasma samples”, “incubated with NADPH” for “incubated”, “by LC-MS/MS.” for “by liquid chromatography with tandem mass spectrometry (LC-MS/MS).”, “equation t1/2” for “equation t1/2(half–time)”
# MDA-MB-231 xenograft = assay type: in vivo; details: oral 30 mg/kg/day
# Protocol: Ten days after injection, tumors were palpable and mice were randomized into treatment and control groups (six mice per group). […] Subcutaneous tumors were measured with a vernier caliper every 3 days. Tumor volumes (V) were estimated using the equation (V = ab^2/2, where a and b are the longest and shortest diameter, respectively). The body weight of the mice was also monitored regularly. At the end of the experimental period, mice were sacrificed and the tumor tissues were dissected and weighed. Tumor growth inhibition (TGI) and the relative increment ratio (T/C) were calculated at the end of treatment to reveal the antitumor effects in tumor weight and tumor volume, respectively.
# • TGI = (the mean tumor weight of control group – the mean tumor weight of treated group)/the mean tumor weight of control group. • T/C = the mean RTV of treated group (T)/the mean RTV of blank control group (C).
# where the relative tumor volume (RTV) is Vt/V0 (Vt is the tumor volume measured at the end of treatment; V0 is the tumor volume measured at the beginning of the treatment).
# All the obtained data were used to evaluate the antitumor potency and toxicity of compounds. Data were analyzed by Student’s one-tailed t-test.
# [5] = test system: acetyl-histone H4 and acetyl-α-tubulin in MDA-MB-231 cells; experiment: Western blot analysis of intracellular HDAC inhibition; assay type: cell-based, human; details: for level of acetyl-histone H4 / level of acetyl-α-tubulin: 3 h, immunoblot
# Protocol: The MDA-MB-231 cells were treated with compounds or DMSO for a specified period of time. Then the cells were washed twice with cold phosphate-buffered saline (PBS) and lysed in ice-cold radioimmunoprecipitation assay (RIPA) buffer. Lysates were cleared by centrifugation. Protein concentrations were determined using the bicinchoninic acid assay. Equal amounts of cell extracts were then resolved by sodium dodecyl sulfate–polyacrylamide gel electrophoresis, transferred to nitrocellulose membranes, and probed with acetyl-histone H4 antibody (intracellular substrate of HDAC1 and HDAC2), acetyl-α-tubulin antibody (intracellular substrate of HDAC6), and β-actin antibody (used as a loading control), respectively. Blots were detected using an enhanced chemiluminescence system.
# [6] = parameters: method as in Konsoula and Jung, 2008; details: reported data of vorinostat; ref Konsoula and Jung, 2008; cited from earlier work
# HDAC2, sequence (Q92769 whole entry, species assumed): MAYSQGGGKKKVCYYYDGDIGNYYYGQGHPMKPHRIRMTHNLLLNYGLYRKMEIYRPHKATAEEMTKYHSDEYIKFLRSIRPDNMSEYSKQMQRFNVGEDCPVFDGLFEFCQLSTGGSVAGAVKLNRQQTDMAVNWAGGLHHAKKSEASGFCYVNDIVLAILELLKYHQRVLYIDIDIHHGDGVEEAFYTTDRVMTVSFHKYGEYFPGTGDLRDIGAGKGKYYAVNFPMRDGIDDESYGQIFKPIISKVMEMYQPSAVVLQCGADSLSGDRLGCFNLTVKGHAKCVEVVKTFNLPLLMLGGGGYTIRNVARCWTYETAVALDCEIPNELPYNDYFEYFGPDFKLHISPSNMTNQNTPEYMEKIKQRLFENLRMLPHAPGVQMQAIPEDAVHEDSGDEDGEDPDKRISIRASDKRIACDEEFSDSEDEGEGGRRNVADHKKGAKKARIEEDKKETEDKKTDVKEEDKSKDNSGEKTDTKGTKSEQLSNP
smiles,measurement,setting,value
"O=C(CCCCCCC(=O)Nc1nc2ccc(OC(F)(F)F)cc2s1)NO [Compound 1, N1-Hydroxy-N8-(6-(Trifluoromethoxy)benzo[d]thiazol-2-yl) Octanediamide]",IC50,[1],120 ± 10 nM
same,IC50,HDAC2,330 ± 40 nM
same,IC50,HDAC6,12 ± 2 nM
same,IC50,HDAC8,3.3 ± 0.2 µM
same,IC50,MDA-MB-231,770 ± 20 nM
same,IC50,MCF-7,2740 ± 60 nM
same,IC50,PC-3,2520 ± 330 nM
same,IC50,SK-N-BE(2),290 ± 7 nM
same,IC50,KG-1,650 ± 20 nM
same,IC50,MOLT-4,170 ± 7 nM
same,IC50,HEL,140 ± 7 nM
same,IC50,"[2]; range over MDA-MB-231, MCF-7, PC-3, SK-N-BE(2), KG-1, MOLT-4, HEL, read-out: IC50 values across all tested human cancer cell lines",140 to 2740 nM
same,half-life,[3],> 120 min
same,half-life,[4],56 min
same,"T/C (relative increment ratio, tumor volume)","MDA-MB-231 xenograft; 21 consecutive days, nude mice",55%
same,"TGI (tumor growth inhibition, tumor weight)","MDA-MB-231 xenograft; 21 consecutive days, nude mice",59%
same,mouse body weights (tolerability),"MDA-MB-231 xenograft; 21 days, Figure 6",high tolerability and low toxicity
same,level of acetyl-histone H4,[5],dramatically increase
same,level of acetyl-α-tubulin,[5],dramatically increase
same,effect on acetyl-α-tubulin compared with vorinostat,[5]; same concentration of 0.5 μM,superior to that of vorinostat
"Nc1nc2ccc(OC(F)(F)F)cc2s1 [Riluzole, reference compound]",IC50,MDA-MB-231,> 10000 nM
same,IC50,PC-3,> 10000 nM
same,IC50,KG-1,> 10000 nM
same,IC50,HEL,> 10000 nM
same,inhibition at 10 µM,"[2]; at 10 μM, tested tumor cell lines, read-out: growth inhibition",< 50%
"O=C(CCCCCCC(=O)Nc1ccccc1)NO [Vorinostat, suberoylanilide hydroxamic acid, reference compound]",level of acetyl-histone H4,[5],dramatically increase
same,level of acetyl-α-tubulin,[5],dramatically increase
same,t1/2 Human plasma,[6],75^b min
